Experimental data: patent US12281301B2, “Sequencing-based proteomics” (THE BROAD INSTITUTE, INC., priority 2018, dated 2025)
Entries after “also recorded” stand apart in the source; their conditions may differ. Peptide text beside a SMILES is read from it. * marks the point of attachment. Cbz = O=C(OCc1ccccc1)*

Tests used:
Assay type in all cases: cell-based, human
[1] = test system: library of tagged HEK293T cells; assay: SBP/PATTERNS protein quantification (FACS binning and tag/barcode sequencing) of drug-treated versus untreated control cells; conditions: for number of proteins significantly affected, by PATTERNS: 6 hours stated for Bortezomib
Protocol: Library-scale RNP-mediated gene tagging. On day one, 18 million HEK293T NeoR-KO cells were plated per 15-cm dish into 32 dishes. On day two, 4 ml of scaled-up transfection mix (see above) were gently added per dish. On day seven, cells were trypsinized and re-plated in media containing 300 μg/ml G418 (Invivogen). The selection media was changed every 4-8 days. On day 25, the library was pre-enriched for detectable fluorescence by FACS sorting, gating on the top-30% mNeon-positive population. The library was expanded for a week and frozen for future use.
Transposition-based Tag Integration Site Sequencing (TTISS). 800,000 cells were resuspended in 80 μl direct lysis buffer (1 mM CaCl2), 3 mM MgCl2, 1 mM EDTA, 1% Triton X-100, 10 mM Tris pH 7.5, 0.2 mg/ml Proteinase K), lysed at 65° C. for 10 minutes, and kept on ice or frozen at −20° C. 25 μl 5×TAPS buffer (50 mM TAPS-NaOH pH 8.5, 25 mM MgCl2), and 21 μl transposon-loaded Tn5 (16 mg/ml, produced as described in Picelli, S. et al. Tn5 transposase and tagmentation procedures for massively scaled sequencing projects. Genome Res 24, 2033-2040, doi: 10.1101/gr.177881.114 (2014), titrated batch-wise for optimal fragment sizes) were added, mixed well, and incubated at 55° C. for 10 minutes. The reaction was mixed with 625 μl buffer PB (Qiagen) and purified using a plasmid miniprep column (Qiagen). Typical yields were 15 μg per column. The tagmentation size distribution was verified on an agarose gel to range from 200 bp to 1 kb. All DNA from a single column was used as template in a 300 μl KOD extreme hot start PCR (Roche) with primers TTISS-mNeon-fwd1 and Tn5-Loading-R2 (Table 1), 12 cycles, Ta=60° C. 6 μl of PCR reaction was used as template in a secondary 50 μl KOD extreme hot start PCR with a unique combination of barcoded primers TTISS-mNeon-fwd2-D50× and TTISS-rev2-D70x(Table 1), 20 cycles, Ta=65° C. Barcoded PCRs were pooled on ice, purified using a PCR column (Qiagen), and run on an agarose gel. Products of 250 bp-1 kb were excised, purified using a gel purification kit (Qiagen), and re-purified using a PCR column (Qiagen). Samples were quantified using a NanoDrop spectrometer and sequenced using a NextSeq High Output kit (Illumina) with 30% PhiX spike-in and the following read settings: 120 cycles read 1, 25 cycles read 2, 8 cycles index 1, and 8 cycles index 2.
Alternatively, 22 bp forward (fwd) reads and 8 bp reverse (rev) reads were aligned to 1 kb windows of the human genomic sequence (hg38) upstream of gRNA target sites not allowing mismatches, and hits were filtered to be in-frame with the annotated ORF (RefSeq). For gRNA-wise protein quantification, counts per gRNA from six adjacent sorted bins were used to calculate the weighted mean bin and variance. For UMI-based evaluation, a dictionary of UMIs was created per sequencing run by calculating a 28-bit hash of nine UMI bases together with one constant donor base and 22 target bases from successfully aligned fwd reads using the same alignment parameters as for gRNA-wise protein quantification. The hash was used to count UMI occurrences and store UMI sequence/target information in an array with typically below 10 conflicts per run. UMIs were collapsed with an edit distance of 1 in order to account for sequencing errors. The UMI dictionary was used to count bin- and UMI-wise reads using the same hash function. Counts per UMI from six adjacent sorted bins were used to calculate the weighted mean bin and variance. All software was written as interactive web tools in JavaScript and will be available through GitHub.
FACS sorting. Cells were trypsinized, washed in FluoroBrite DMEM Media (Thermo) and sorted using a Sony MA900 (where not denoted otherwise) or a MoFlo Astrios sorter (for […], SKMEL28 screens) using a 488 nm laser. Cells were collected in 1 ml growth medium and kept on ice until pelleting and lysis.
De-convolution of sorted libraries using Silent Barcode Sequencing. […]

HEK293T cells [2] = assay: RNA-sequencing transcript expression, drug-treated versus untreated control cells
Protocol: RNA-seq. Whole-cell RNA was purified using an RNeasy Plus Mini Kit (Qiagen). Poly (A) mRNA was enriched using the Poly(A) mRNA Magnetic Isolation Module (NEB). Sequencing libraries were prepared using the NEBNext Ultra II Directional RNA Library Prep kit (NEB), quantified using a NanoDrop (Thermo), and sequenced on the NextSeq sequencer (Illumina). Reads were aligned to the human genome and gene expression was quantified using the online tool BrowserGenome.org (Schmid-Burgk, J. L. & Hornung, V. BrowserGenome.org: web-based RNA-seq data analysis and visualization. Nat Methods 12, 1001, doi: 10.1038/nmeth.3615 (2015)).

HEK293T cells [3] = assay: TMT labeling whole proteome mass spectrometry, drug-treated versus untreated control cells
Protocol: Mass spectrometry. Cells were grown and stimulated in 10 cm dishes, washed three times in cold PBS, and scraped into 1 ml 8 M urea in water per dish. Protein content of the lysates was quantified using Pierce 660 reagent and a NanoDrop spectrometer. Samples were reduced, iodoacetamide alkylated, digested with Trypsin, labeled with 10-plex TMT (VWR cat no PI90110), and combined. After SPE clean-up and volume reduction by SpeedVac, the combined sample was run on a C18 reverse phase LC using a pH 10 A buffer, and eight fractions were collected. The volume was reduced to 20 μl by SpeedVac. Each fraction was run on an EASY nLC HPLC attached to a Thermo QE-HFX mass spectrometer in nanospray configuration using a 90 minutes acquisition time. Proteins were quantified using the MaxQuant software package.
Statistical analysis. Mass spectrometry reporter intensity data were imported into Perseus software, log-2-transformed, and filtered for missing values as well as reverse peptides or potential contaminants. Data were median-subtracted and significant outliers were determined by performing two-sided unpaired t-tests, correcting for multiple testing using an FDR=5% and s0=0.1, performing 250 randomizations. PATTERNS mean protein level bin data were processed in the same way except without the filtering and normalization steps. Volcano plots were generated using the Perseus software, and all other plots were created using custom code.

HEK293T cells [4] = assay: Immunoblotting validation of predicted drug-regulated proteins; conditions: time points after drug treatment
Protocol: Immunoblotting. Cells were lysed in 6-well plates in 400 μl 2×LDS buffer (Thermo) supplemented with 2×Bolt reducing agent (Thermo), heated to 95° C. for 15 minutes, and cooled on ice. 9 μl lysate was loaded per lane of Bolt 4-12% Bis-Tris Plus gels (Thermo) and run at 100 V for 1:15 h. Blotting was performed using the iBlot PVDF kit (Thermo) and program P-3 for 4 minutes. After blocking for 1 h in TBST 5% BSA, primary antibodies were bound over night at 4° C. in TBST 5% BSA. After triple washing, HRP-conjugated secondary antibodies (Cell Signaling Technology) were bound at 1:5000 dilution in TBST 5% BSA for 1 h at room temperature. Blots were imaged using Pierce ECL (Thermo) on a Chemidoc luminescence imager (Biorad). Primary antibodies used were: RBM39 clone 4G8 (Novus Biologicals), DDIT4 clone EPR18716 (Abcam), BRD2 clone D89B4 (Cell Signaling Technology), RRM2 clone 1E1 (Sigma), HRP-coupled beta-Actin clone 13E5 (Cell Signaling Technology), and cell cycle antibody cocktail (ab136810, Abcam).

[5] = test system: clonal mNeon-tagged reporter cell lines; assay: FACS of clonal mNeon-tagged reporter cell lines after drug stimulation
Protocol: (§1) Analytical flow cytometry. For optional genomic DNA staining, 1/20 volume of Hoechst 33342 (10 mg/ml, Thermo) was added to live cells for 15 minutes at 37° C. Cells were washed in PBS, trypsinized, resuspended in media, and analyzed on a CytoFLEX (Beckman Coulter) in 96-well plate mode.

MSH6 = assay: MSH6-mNeonGreen reporter cell line assayed by FACS; conditions: for MSH6-mNeonGreen expression after application of single compounds: single compounds at 125 nM for 6 h
Protocol: as §1

PRKDC = assay: PRKDC-mNeonGreen reporter cells assayed by FACS; conditions: 125 nM, indicated time points
Protocol: as §1

[6] = drug-treated vs untreated control cells

CC(C)C[C@H](NC(=O)[C@H](Cc1ccccc1)NC(=O)c1cnccn1)B(O)O [Bortezomib]
DDIT4 level by PATTERNS ([1]; HEK293T library, 6 hours, change may be non-specific): affected | number of proteins significantly affected, by PATTERNS ([1]; HEK293T library): 55 proteins | DDIT4 level change (mean protein expression bin) by SBP ([1]; topmost change, not statistically significant in the SBP data): +1.6 bins | DDIT4 identification as target by RNA-Seq (HEK293T cells [2]; [6]): could not identify | PATTERNS hits regulated at the transcript level (RNA-sequencing) (HEK293T cells [2]; of the 55 PATTERNS hits): only GADD45B | DDIT4 quantification by quantitative mass spectrometry (HEK293T cells [3]; [6]): failed to quantify | outlier / upregulated proteins by TMT whole proteome mass spectrometry (HEK293T cells [3]; drug-treated vs untreated control cells, triplicate): ATF3 and JUN; also recorded: two upregulated proteins | DDIT4 increase validated by western blot (HEK293T cells [4]): confirmed | PATTERNS hits DDIT4, ID1, ID2 and JUN validated by western blot (HEK293T cells [4]): confirmed | PATTERNS hits DDIT4, ID1, ID2 and JUN validated by FACS of reporter cell lines [5]: confirmed | DDIT4 regulation in clonal mNeon-tagged reporter cell line by FACS ([5]; stimulated for six hours): confirmed

NS(=O)(=O)c1ccc(S(=O)(=O)Nc2cccc3c(Cl)c[nH]c23)cc1 [Indisulam]
effect size of the next potentially depleted protein by SBP ([1]; drug vs DMSO control, comparison with RBM39): −0.37 bins | RBM39 effect size (change of mean protein expression bin) by SBP ([1]; drug vs DMSO control, six sorted expression bins, two replicate runs): −2.1 bins | RBM39 protein level change by SBP/PATTERNS ([1]; drug-treated vs control tagged library): highly specific depletion | significantly depleted proteins by SBP/PATTERNS (specificity) ([1]; two replicates, FDR 5%): only significantly depleted protein | RBM39 RNA level (HEK293T cells [2]; [6]): no significant change | RBM39 down-regulation by TMT whole proteome mass spectrometry (HEK293T cells [3]; strong but not statistically significant hit): 2 fold | RBM39 depletion validated by western blot (HEK293T cells [4]): confirmed | RBM39 depletion validated by FACS of a clonal reporter cell line ([5]; stimulated for six hours): confirmed

CCc1c(O)cc(O)c(C(=O)c2ccc(OCCN3CCOCC3)c(OC)c2)c1CC(=O)N(CCOC)CCOC.Cl [KW-2478]
MSH6-mNeonGreen expression after application of single compounds (MSH6): downregulation

CC(C)C[C@@H](C=O)NC(=O)[C@H](CC(C)C)NC(=O)[C@H](CC(C)C)NC(=O)OCc1ccccc1 [MG-132] (Cbz-Leu-Leu-Leu-aldehyde)
DDIT4 regulation in clonal mNeon-tagged reporter cell line by FACS ([5]; stimulated for six hours): regulated

Cc1ncsc1-c1ccc(CNC(=O)[C@@H]2C[C@@H](O)CN2C(=O)[C@@H](NC(=O)COCCOCCOCCNC(=O)C[C@@H]2N=C(c3ccc(Cl)cc3)c3c(sc(C)c3C)-n3c(C)nnc32)C(C)(C)C)cc1 [MZ-1]
BRD protein family members degraded, by PATTERNS ([1]; HEK293T library): degradation of two BRD protein family members, BRD2 and BRD3 | number of proteins significantly affected, by PATTERNS ([1]; HEK293T library): 20 proteins | BRD2 protein level change by SBP ([1]; drug vs DMSO control): significant decrease | BRD2 identification by RNA-Seq (HEK293T cells [2]; [6]): could not be identified | BRD4 in mass spectrometry analysis (HEK293T cells [3]; BRD4 not represented in the SBP library): not statistically significant hit | BRD2 down-regulation by mass spectrometry (HEK293T cells [3]; strong albeit not statistically significant hit): 2.3 fold | BRD2 decrease validated by western blot (HEK293T cells [4]): confirmed | BRD2 decrease validated by FACS of clonal reporter cell line ([5]; stimulated for six hours): confirmed

CC1(C)CC(=O)c2c(C(F)(F)F)nn(-c3ccc(C(N)=O)c(N[C@H]4CC[C@H](O)CC4)c3)c2C1 [SNX2112, SNX-2112]
kinetics of the reduction of MSH6 levels (MSH6; 125 nM, indicated time points): significant depletion in MSH6 levels in under two hours | MSH6-mNeonGreen expression after application of single compounds (MSH6): downregulation | kinetics of the reduction of PRKDC levels (PRKDC): also observed

CC1(C)CC(=O)c2c(C(F)(F)F)nn(-c3ccc(C(N)=O)c(N[C@H]4CC[C@H](OC(=O)CN)CC4)c3)c2C1 [SNX-5422]
MSH6-mNeonGreen expression after application of single compounds (MSH6): downregulation
